Patent US8921376B2, “Pyrrolopyridines useful as inhibitors of protein kinase” (Vertex Pharmaceuticals Incorporated, priority 2005, dated 2014)

Key:
Type in all cases: biochemical
[1] = molecular target: T1, JAK3 (Homo sapiens, UniProt P52333); assay: JAK3 inhibition assay (33P incorporation into poly(Glu)4Tyr)
T1 sequence (P52333 1-1124): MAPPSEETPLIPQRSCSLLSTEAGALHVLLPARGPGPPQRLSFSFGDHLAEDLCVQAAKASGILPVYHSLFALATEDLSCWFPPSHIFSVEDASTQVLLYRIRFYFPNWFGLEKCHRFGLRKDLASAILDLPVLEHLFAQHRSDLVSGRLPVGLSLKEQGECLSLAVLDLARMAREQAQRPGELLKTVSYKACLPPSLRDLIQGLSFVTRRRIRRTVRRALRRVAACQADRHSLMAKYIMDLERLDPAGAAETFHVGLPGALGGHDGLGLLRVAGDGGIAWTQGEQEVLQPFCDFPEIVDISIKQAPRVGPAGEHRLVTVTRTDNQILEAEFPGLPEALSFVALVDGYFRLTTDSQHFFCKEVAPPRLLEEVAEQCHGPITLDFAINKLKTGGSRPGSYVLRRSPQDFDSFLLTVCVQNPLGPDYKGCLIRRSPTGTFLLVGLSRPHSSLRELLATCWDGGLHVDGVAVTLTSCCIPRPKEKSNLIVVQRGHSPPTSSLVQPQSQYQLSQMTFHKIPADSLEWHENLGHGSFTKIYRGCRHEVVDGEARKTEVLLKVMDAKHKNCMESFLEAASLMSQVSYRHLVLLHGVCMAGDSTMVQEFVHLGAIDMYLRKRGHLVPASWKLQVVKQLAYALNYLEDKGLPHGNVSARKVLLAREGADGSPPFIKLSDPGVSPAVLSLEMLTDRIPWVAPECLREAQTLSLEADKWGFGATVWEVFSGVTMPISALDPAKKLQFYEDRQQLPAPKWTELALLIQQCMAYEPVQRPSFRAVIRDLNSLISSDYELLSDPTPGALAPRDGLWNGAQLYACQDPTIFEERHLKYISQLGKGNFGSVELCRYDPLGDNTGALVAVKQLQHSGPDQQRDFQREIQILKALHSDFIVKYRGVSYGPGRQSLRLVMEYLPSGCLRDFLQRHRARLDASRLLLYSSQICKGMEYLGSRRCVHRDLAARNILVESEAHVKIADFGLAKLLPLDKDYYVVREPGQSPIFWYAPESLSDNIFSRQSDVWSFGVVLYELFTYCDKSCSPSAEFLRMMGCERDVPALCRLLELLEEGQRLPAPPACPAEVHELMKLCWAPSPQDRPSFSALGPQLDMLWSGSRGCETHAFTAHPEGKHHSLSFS
Experimental: (§1) Compounds were screened for their ability to inhibit JAK using the assay shown below. Reactions were carried out in a kinase buffer containing 100 mM HEPES (pH 7.4), 1 mM DTT, 10 mM MgCl2, 25 mM NaCl, and 0.01% BSA.
(§2) Substrate concentrations in the assay were 5 μM ATP (200 μCi/μmole ATP) and 1 μM poly(Glu)4Tyr. Reactions were carried out at 25° C. and 1 nM JAK3.
(§3) To each well of a 96 well polycarbonate plate was added 1.5 μl of a candidate JAK3 inhibitor along with 50/1 of kinase buffer containing 2 μM poly(Glu)4Tyr and 10 μM ATP. This was then mixed and 50 μl of kinase buffer containing 2 nM JAK3 enzyme was added to start the reaction. After 20 minutes at room temperature (25 C), the reaction was stopped with 50 μl of 20% trichloroacetic acid (TCA) that also contained 0.4 mM ATP. The entire contents of each well were then transferred to a 96 well glass fiber filter plate using a TomTek Cell Harvester. After washing, 60 μl of scintillation fluid was added and ^33P incorporation detected on a Perkin Elmer TopCount.

[2] = molecular target: ROCK I (Homo sapiens, UniProt Q13464); assay: ROCK-I inhibition assay (radioactive enzyme assay, MBP substrate)
Experimental: Compounds were screened for their ability to inhibit ROCK using a standard radioactive enzyme assay. Assays were carried out in a solution containing 100 mM HEPES (pH 7.5), 10 mM MgCl2, 25 mM NaCl, 2 mM DTT, and 1.5% DMSO. Final substrate concentrations in the assay were 13 μM [γ-^33P] ATP (25 mCi ^33P ATP/mmol ATP, Perkin Elmer, Cambridge, Mass./Sigma Chemicals, St Louis, Mo.) and 27 μM Myelin Basic Protein (MBP). Final enzyme concentration in the assay was 5 nM ROCK. Assays were carried out at room temperature. 1.5 μl of DMSO stock containing serial dilutions of the compound of the present invention (concentrations ranging from 10 μM to 2.6 nM) was placed in a 96 well plate. 50 μl of Solution 1 (100 mM HEPES (pH 7.5), 10 mM MgCl2, […]) was added to the plate. The reaction was initiated by addition of 50 μl of Solution 2 (100 mM HEPES (pH 7.5), 10 mM MgCl2, 4 mM DTT, […] and 10 nM ROCK). After 2 hours the reaction was quenched with 50 μL of 30% trichloroacetic acid (TCA, Fisher) containing 9 mM ATP. Transfer of 140 μL of the quenched reaction to a glass fiber filter plate (Corning, Cat. No. 3511) was followed by washing 3 times with 5% TCA. 50 μl of Optima Gold scintillation fluid (Perkin Elmer) was added and the plates were counted on a Top Count (Perkin Elmer). After removing mean background values for all of the data points the data was fit using Prism software to obtain a Ki(app).

[3] = molecular target: JAK2 (Homo sapiens, UniProt O60674); assay: JAK2 inhibition assay (as Example 3 with JAK-2 enzyme)
Experimental: as §1, §2, §3
The assays were as described above in Example 3 except that JAK-2 enzyme was used, the final poly(Glu)4Tyr concentration was 15 μM, and final ATP concentration was 12 μM.

[4] = enzyme inhibition, Ki(app), Table 5
[5] = Table 6, enzyme inhibition data (Ki)

JAK2, sequence (O60674 whole entry): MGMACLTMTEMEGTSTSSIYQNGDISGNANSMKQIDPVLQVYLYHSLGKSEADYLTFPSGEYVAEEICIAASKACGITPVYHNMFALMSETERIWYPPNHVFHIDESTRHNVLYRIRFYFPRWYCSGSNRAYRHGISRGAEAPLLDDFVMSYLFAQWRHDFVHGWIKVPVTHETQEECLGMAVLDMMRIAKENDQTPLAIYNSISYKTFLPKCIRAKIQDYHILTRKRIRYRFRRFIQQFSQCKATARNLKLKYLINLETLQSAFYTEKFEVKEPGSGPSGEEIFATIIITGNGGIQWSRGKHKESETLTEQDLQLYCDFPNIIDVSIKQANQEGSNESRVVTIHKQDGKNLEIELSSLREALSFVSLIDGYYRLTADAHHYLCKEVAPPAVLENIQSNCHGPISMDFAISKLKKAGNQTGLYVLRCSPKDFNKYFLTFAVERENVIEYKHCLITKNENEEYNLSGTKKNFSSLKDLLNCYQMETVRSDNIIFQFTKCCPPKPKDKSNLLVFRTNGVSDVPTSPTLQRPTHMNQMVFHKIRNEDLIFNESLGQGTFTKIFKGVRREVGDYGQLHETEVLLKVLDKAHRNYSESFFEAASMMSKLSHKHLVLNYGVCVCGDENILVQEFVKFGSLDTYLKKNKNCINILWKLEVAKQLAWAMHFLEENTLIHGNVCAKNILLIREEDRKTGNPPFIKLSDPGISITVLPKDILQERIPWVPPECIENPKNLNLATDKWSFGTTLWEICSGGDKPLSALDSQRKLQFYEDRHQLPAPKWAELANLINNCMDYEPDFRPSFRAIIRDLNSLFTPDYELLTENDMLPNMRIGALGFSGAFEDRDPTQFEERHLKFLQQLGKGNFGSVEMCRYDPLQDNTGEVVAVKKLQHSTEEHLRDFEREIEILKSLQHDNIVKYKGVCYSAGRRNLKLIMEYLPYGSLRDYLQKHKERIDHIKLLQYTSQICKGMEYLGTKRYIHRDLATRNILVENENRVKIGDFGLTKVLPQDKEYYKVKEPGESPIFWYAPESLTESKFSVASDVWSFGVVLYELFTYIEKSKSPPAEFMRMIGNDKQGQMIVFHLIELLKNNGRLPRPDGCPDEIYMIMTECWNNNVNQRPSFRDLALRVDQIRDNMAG
ROCK I, sequence (Q13464 whole entry): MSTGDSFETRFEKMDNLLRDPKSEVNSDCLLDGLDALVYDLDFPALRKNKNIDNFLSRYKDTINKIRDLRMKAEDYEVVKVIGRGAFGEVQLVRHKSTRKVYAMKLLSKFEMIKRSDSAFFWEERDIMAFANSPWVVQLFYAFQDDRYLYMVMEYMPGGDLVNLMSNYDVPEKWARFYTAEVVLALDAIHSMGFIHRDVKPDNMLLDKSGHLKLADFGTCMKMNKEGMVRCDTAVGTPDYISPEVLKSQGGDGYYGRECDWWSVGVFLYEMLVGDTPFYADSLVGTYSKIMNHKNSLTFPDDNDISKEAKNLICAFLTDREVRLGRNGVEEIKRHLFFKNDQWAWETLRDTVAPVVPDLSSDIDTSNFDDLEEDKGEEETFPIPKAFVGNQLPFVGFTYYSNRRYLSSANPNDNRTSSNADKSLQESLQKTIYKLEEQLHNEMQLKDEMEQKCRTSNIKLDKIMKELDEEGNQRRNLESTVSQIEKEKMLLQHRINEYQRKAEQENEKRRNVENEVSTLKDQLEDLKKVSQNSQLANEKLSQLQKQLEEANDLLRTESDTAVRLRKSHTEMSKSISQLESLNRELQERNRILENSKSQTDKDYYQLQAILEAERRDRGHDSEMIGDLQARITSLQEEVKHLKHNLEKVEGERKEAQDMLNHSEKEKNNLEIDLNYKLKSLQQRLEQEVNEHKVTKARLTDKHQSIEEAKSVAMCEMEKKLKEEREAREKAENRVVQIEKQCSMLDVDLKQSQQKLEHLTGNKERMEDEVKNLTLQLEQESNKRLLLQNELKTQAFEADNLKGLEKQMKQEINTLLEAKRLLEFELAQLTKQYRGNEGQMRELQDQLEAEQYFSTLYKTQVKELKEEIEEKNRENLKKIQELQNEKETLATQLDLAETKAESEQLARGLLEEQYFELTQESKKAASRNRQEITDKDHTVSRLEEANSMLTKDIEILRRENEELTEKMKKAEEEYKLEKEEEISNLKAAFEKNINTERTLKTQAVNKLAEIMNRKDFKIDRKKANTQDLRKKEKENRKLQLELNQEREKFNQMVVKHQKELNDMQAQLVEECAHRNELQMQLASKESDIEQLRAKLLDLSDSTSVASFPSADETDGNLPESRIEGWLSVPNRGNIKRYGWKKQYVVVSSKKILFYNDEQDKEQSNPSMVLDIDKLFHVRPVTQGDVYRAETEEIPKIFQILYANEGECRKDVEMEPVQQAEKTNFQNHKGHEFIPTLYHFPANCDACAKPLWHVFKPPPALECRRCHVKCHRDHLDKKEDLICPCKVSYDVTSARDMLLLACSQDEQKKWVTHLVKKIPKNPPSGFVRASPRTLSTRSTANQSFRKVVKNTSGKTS

Structure (SMILES) | Ki ([1]; enzyme inhibition, Table 5) | Ki [2, 4] | Ki ([3]; enzyme inhibition, Table 5) | Ki [1, 5] | Ki [2, 5] | Ki [3, 5]
Clc1cnc2[nH]ccc2c1NC1CCCC1 [compound 127, 5-chloro-N-cyclopentyl-1H-pyrrolo[2,3-b]pyridin-4-amine] | < 500 nM | < 500 nM | < 500 nM |  |  | 
Cc1ccccc1-c1ccnc2[nH]ccc12 [compound 219] |  |  |  | 500 to 5000 nM | 500 to 5000 nM | > 5000 nM
CS(=O)(=O)N1CC[C@@H](Nc2c(Cl)cnc3[nH]ccc23)C1 [compound 184] |  |  |  | < 500 nM | 500 to 5000 nM | < 500 nM
Clc1ccccc1CCNc1cccc(-c2ccnc3[nH]ccc23)n1 [compound 34, N-(2-Chlorophenethyl)-6-(1H-pyrrolo[2,3-b]pyridin-4-yl)pyridin-2-amine] | 500 to 5000 nM | 500 to 5000 nM | 500 to 5000 nM |  |  | 
O=S(=O)(c1ccccc1)n1cc(-c2c(Cl)cnc3[nH]ccc23)c2ccccc21 [compound 148] |  |  |  | 500 to 5000 nM | > 4000 nM | 500 to 5000 nM
Cc1n[nH]c(C)c1-c1ccnc2[nH]ccc12 [compound 124, 4-(3,5-Dimethyl-1H-pyrazol-4-yl)-1H-pyrrolo[2,3-b]pyridine] | 500 to 5000 nM | 500 to 5000 nM | > 5000 nM |  |  | 
CCC(=O)N1CCCC(Nc2c(Cl)cnc3[nH]ccc23)C1 (stereo not drawn) [compound 175] |  |  |  | < 500 nM | > 4000 nM | < 500 nM
COc1cccc(OC)c1-c1ccnc2[nH]ccc12 [compound 222] |  |  |  | > 5000 nM | > 4000 nM | > 5000 nM
CC(C)(C)OC(=O)n1cccc1-c1c(Cl)cnc2[nH]ccc12 [compound 143] |  |  |  | > 5000 nM | > 4000 nM | 500 to 5000 nM
CCN(CC)c1cccc(-c2ccnc3[nH]ccc23)n1 [compound 52, N,N-Diethyl-6-(1H-pyrrolo[2,3-b]pyridin-4-yl)pyridin-2-amine] | < 500 nM | < 500 nM | < 500 nM |  |  | 
O=S(=O)(C1CC1)N1CC[C@H](Nc2c(Cl)cnc3[nH]ccc23)C1 [compound 179] |  |  |  | < 500 nM | > 4000 nM | < 500 nM
CCc1ccccc1-c1ccnc2[nH]ccc12 [compound 231] |  |  |  | 500 to 5000 nM | 500 to 5000 nM | 500 to 5000 nM
CC1CCCCC1Nc1c(Cl)cnc2[nH]ccc12 (stereo not drawn) [compound 153] |  |  |  | < 500 nM | 500 to 5000 nM | < 500 nM
c1ccc2c(c1)Oc1c(cccc1-c1ccnc3[nH]ccc13)S2 [compound 246] |  |  |  | > 5000 nM | > 4000 nM | > 5000 nM
Clc1cnc2[nH]ccc2c1N[C@@H]1CCC[C@H]1OCc1ccccc1 [compound 152] |  |  |  | < 500 nM | < 500 nM | < 500 nM
Clc1ccc(Cl)c(-c2ccnc3[nH]ccc23)c1 [compound 211] |  |  |  | 500 to 5000 nM | < 500 nM | 500 to 5000 nM
O=C(CC(F)(F)F)N1CC[C@@H](Nc2c(Cl)cnc3[nH]ccc23)C1 [compound 189] |  |  |  | 500 to 5000 nM | > 4000 nM | < 500 nM
C[C@@H](Nc1ccnc(-c2ccnc3[nH]ccc23)n1)C(=O)NCC(F)(F)F [compound 202] |  |  |  | < 500 nM | > 4000 nM | 500 to 5000 nM
Fc1cccc(-c2c(Cl)cnc3[nH]ccc23)n1 [compound 48, 5-chloro-4-(6-fluoropyridin-2-yl)-1H-pyrrolo[2,3-b]pyridine] | < 500 nM | 500 to 5000 nM | < 500 nM |  |  | 
O=C(NCCC(F)(F)F)c1ccccc1-c1ccnc2[nH]ccc12 [compound 254] |  |  |  | > 5000 nM | > 4000 nM | > 5000 nM
Cc1cccc(-c2ccnc3[nH]ccc23)c1C [compound 212] |  |  |  | 500 to 5000 nM | 500 to 5000 nM | 500 to 5000 nM
COCc1cccc(-c2ccnc3[nH]ccc23)c1 [compound 62, 4-(3-Methoxymethyl-phenyl)-1H-pyrrolo[2,3-b]pyridine] | < 500 nM | < 500 nM | < 500 nM |  |  | 
O=C(NC1CCCC1)c1cc(-c2ccnc3[nH]ccc23)c[nH]1 [compound 263] |  |  |  | < 500 nM | < 500 nM | < 500 nM

More lines, now with the values ahead:

Ki ([1]; enzyme inhibition, Table 5) | Ki [2, 4] | Ki ([3]; enzyme inhibition, Table 5) | Ki [1, 5] | Ki [2, 5] | Ki [3, 5] | Structure (SMILES)
 |  |  | < 500 nM | 500 to 5000 nM | < 500 nM | C#CCN(C)C(=O)c1cc(-c2c(Cl)cnc3[nH]ccc23)c[nH]1 [compound 338]
 |  |  | < 500 nM | 500 to 5000 nM | < 500 nM | CCCCN(CCC#N)C(=O)c1cc(-c2c(Cl)cnc3[nH]ccc23)c[nH]1 [compound 336]
 |  |  | < 500 nM | < 500 nM | < 500 nM | N#CCN(Cc1ccc(F)cc1)C(=O)c1cc(-c2c(F)cnc3[nH]ccc23)c[nH]1 [compound 400]
 |  |  | < 500 nM | < 500 nM | < 500 nM | CCCNC(=O)c1ccc(-c2ccnc3[nH]ccc23)cc1 [compound 267]
 |  |  | < 500 nM | < 500 nM | < 500 nM | CCN(Cc1ccccc1)C(=O)c1csc(-c2ccnc3[nH]ccc23)n1 [compound 404]
 |  |  | < 500 nM | < 500 nM | < 500 nM | N#CCCN(CC(F)(F)F)C(=O)c1csc(-c2ccnc3[nH]ccc23)n1 [compound 403]
 |  |  | < 500 nM | > 4000 nM | < 500 nM | O=C(c1cc(-c2c(Cl)cnc3[nH]ccc23)c[nH]1)N1CCCC1CO (stereo not drawn) [compound 346]
 |  |  | < 500 nM | 500 to 5000 nM | < 500 nM | N#CCCN(Cc1ccccc1)C(=O)c1cc(-c2c(Cl)cnc3[nH]ccc23)c[nH]1 [compound 343]
 |  |  | < 500 nM | 500 to 5000 nM | < 500 nM | CN(CC(F)(F)F)C(=O)c1cc(-c2c(Cl)cnc3[nH]ccc23)c[nH]1 [compound 360]
 |  |  | < 500 nM | 500 to 5000 nM | < 500 nM | CCN(Cc1ccncc1)C(=O)c1cc(-c2c(Cl)cnc3[nH]ccc23)c[nH]1 [compound 353]
 |  |  | < 500 nM | 500 to 5000 nM | < 500 nM | CC(C)CN(C)C(=O)c1cc(-c2ccnc3[nH]ccc23)c[nH]1 [compound 310]
 |  |  | < 500 nM | < 500 nM | < 500 nM | N#CC1CCCN1C(=O)c1cc(-c2ccnc3[nH]ccc23)c[nH]1 (stereo not drawn) [compound 373]
 |  |  | < 500 nM | > 4000 nM | < 500 nM | CC(C)[C@H](C(=O)NCC(F)(F)F)n1ccc2cnc(-c3ccnc4[nH]ccc34)nc21 [compound 425]
